From BindingDB's records for patent US20230293517 (Adorx Therapeutics, 2023) come the findings set out here.

Holding throughout (assay): Adenosine Receptor Time-Resolved Fluorescence Resonance Energy Transfer (TRFRET) Binding Assay
Test [1] addresses Adenosine receptor A2a (Homo sapiens, UniProt P29274). As for the experimental part: (§1) All FRET binding experiments were conducted at room temperature in white 384-well plates, in assay binding buffer containing 1×LabMed (Cisbio, France), 100 μg/mL saponin, 1% DMSO and 0.02% pluronic acid. Binding of the fluorescently labelled Adenosine receptor antagonist XAC (CA200645, FRET acceptor) to terbium-labelled A1, A2a, A2b and A3 adenosine receptors (FRET donors) was detected by time-resolved FRET due to the close proximity of the donor and acceptor in a binding event. To investigate the ability of unlabelled test compounds to bind to Adenosine A1, A2a, A2b and A3 receptors, dose response curves were constructed that determined the ability of a range of concentrations to inhibit the binding of 30 nM CA200645 to the A2b receptor and 100 nM CA200645 to the A1, A2a, and A3 receptor. Serial dilution (1:3 dilutions) of test compounds in neat DMSO and transfer of a 400 nL sample of test compound into the assay plate was carried out using the Mosquito (TTP Labtech, UK). The compound samples were incubated for 2 hours at room temperature with a fixed concentration of CA200645 defined for each receptor (see above) and CHO cell membranes containing the human Adenosine A1 (0.5 μg/well), A2a (0.3 μg/well), A2b (1 μg/well) or A3 (1 μg/well) receptor in 40 μL of assay buffer. Total and non-specific binding of CA200645 was determined in the absence and presence of 10 μM XAC, respectively. Following 2 hours incubation, the level of CA200645 binding was detected on a Pherastar FSX (BMG Labtech, Germany) using standard TR-FRET settings. […] FRET ratios were obtained by multiplying the acceptor/donor ratio value by 10,000. Specific binding was determined by subtracting the non-specific binding FRET ratio from the total binding FRET ratio.

The target in test [2] is T1, Adenosine receptor A3 (Homo sapiens, UniProt P0DMS8).
T1 sequence (P0DMS8 whole entry): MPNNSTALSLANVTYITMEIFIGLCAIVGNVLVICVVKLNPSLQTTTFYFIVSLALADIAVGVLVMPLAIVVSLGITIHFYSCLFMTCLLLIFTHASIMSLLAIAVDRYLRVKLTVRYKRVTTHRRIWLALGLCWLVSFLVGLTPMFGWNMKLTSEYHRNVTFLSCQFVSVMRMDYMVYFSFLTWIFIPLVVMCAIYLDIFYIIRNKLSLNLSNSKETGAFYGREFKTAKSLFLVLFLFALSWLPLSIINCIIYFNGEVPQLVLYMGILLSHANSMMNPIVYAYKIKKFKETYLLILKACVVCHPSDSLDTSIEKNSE
As for the experimental part:
as §1

Test [3] deals with T2, Adenosine receptor A1 (Homo sapiens, UniProt P30542).
T2 sequence (P30542 whole entry): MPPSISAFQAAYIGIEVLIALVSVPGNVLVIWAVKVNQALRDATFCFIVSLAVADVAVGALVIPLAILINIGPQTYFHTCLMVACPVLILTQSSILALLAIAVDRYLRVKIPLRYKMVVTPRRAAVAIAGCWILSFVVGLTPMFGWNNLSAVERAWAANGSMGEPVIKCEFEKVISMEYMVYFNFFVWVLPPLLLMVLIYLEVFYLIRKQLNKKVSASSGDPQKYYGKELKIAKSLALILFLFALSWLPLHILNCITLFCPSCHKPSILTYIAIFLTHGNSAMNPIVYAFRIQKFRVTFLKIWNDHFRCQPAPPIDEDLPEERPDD
Here is the method:
as §1

Test [4] concerns the target T3, Adenosine receptor A2b (Homo sapiens, UniProt P29275).
T3 sequence (P29275 whole entry): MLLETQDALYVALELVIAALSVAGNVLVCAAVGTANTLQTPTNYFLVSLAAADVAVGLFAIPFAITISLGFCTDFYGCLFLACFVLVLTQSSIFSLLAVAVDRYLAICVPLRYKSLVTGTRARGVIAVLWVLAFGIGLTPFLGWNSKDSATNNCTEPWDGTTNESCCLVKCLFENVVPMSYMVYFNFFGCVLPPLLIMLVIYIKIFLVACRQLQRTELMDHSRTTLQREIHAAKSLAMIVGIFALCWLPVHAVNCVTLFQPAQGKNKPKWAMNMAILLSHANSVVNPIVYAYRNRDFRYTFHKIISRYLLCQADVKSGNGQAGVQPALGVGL
Here is the method:
as §1

Adenosine receptor A2a, sequence (P29274 whole entry): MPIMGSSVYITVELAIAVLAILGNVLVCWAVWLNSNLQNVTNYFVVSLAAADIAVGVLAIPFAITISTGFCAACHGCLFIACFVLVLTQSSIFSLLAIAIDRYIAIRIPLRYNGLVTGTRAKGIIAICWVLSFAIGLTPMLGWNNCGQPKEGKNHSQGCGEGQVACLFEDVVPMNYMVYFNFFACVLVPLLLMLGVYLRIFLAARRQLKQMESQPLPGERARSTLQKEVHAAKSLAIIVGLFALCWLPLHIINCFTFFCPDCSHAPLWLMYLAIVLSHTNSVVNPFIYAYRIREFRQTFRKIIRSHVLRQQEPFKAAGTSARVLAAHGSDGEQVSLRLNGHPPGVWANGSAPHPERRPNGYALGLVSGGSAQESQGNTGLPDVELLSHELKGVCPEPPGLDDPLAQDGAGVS

For the molecule `Cc1cc(-c2sc(NC(=O)N3CCOC(C(N)=O)C3)nc2-c2cccc(C#N)c2)cc(C)n1` (configuration not stated) [US20230293517, Example 4.14], the inhibitory constant (Ki) in test [1] is 2 nM; in test [2], 200 nM; in test [3], 67 nM; in test [4], 2.4 nM.
As to `Cc1cc(-c2sc(NC(=O)N3CCC4(CC3)CNC(=O)N4C)nc2-c2cccc(C#N)c2)cc(C)n1` [US20230293517, Example 6.51], the Ki in test [2] was determined as 318 nM; in test [3], 120 nM; in test [4] it was 1.2 nM.
In the case of `Cc1cc(-c2sc(NC(=O)N3CC4(CCOCC4)C3)nc2-c2cccc(C#N)c2)cc(C)n1` [US20230293517, Example 6.54], the inhibition constant (Ki) in test [1] was 0.38 nM; in test [2], 268 nM; in test [3], 53 nM; in test [4], 1.9 nM.
Regarding `Cc1cc(-c2sc(NC(=O)N3CC4(CNC(=O)C4)C3)nc2-c2cccc(C#N)c2)cc(C)n1` [US20230293517, Example 6.55], the inhibitory constant (Ki) in test [1] turned out to be 0.6 nM; in test [2] it was 273 nM; in test [3], 86 nM; in test [4] it was 2.4 nM.
For the molecule `Cc1cc(-c2sc(NC(=O)N3CCC4(CC3)CNC(=O)O4)nc2-c2cccc(C#N)c2)cc(C)n1` [US20230293517, Example 6.56], the Ki came to 0.59 nM in test [1], 368 nM in test [2], 75 nM in test [3] and 1.2 nM in test [4].
For `Cc1cc(-c2sc(NC(=O)N3CC4(CNC(=O)N4)C3)nc2-c2cccc(C#N)c2)cc(C)n1` [US20230293517, Example 6.57], in that order: 0.88 nM, 212 nM, 32 nM and 1.3 nM.
For `Cc1cc(-c2sc(NC(=O)N3CCC4(CCCC(=O)N4)CC3)nc2-c2cccc(C#N)c2)cc(C)n1` [US20230293517, Example 6.58], in that order: 2.27 nM, 848 nM, 559 nM and 7.8 nM.
For `Cc1cc(-c2sc(NC(=O)N3CCC(C)(C#N)CC3)nc2-c2cccc(C#N)c2)c(F)c(C)n1` [US20230293517, Example 6.66], the Ki in test [1] worked out at 0.43 nM; in test [2] it was 1210 nM; in test [3] it was 37 nM; in test [4], 0.6 nM.
For `Cc1cc(-c2sc(NC(=O)N3CC(C)(O)C3)nc2-c2cccc(C#N)c2)c(F)c(C)n1` [US20230293517, Example 6.67], in that order: 2.06 nM, 201 nM, 22 nM and 1 nM.
On to `Cc1cc(-c2sc(NC(=O)N3CC(C)(C#N)C3)nc2-c2cccc(C#N)c2)c(F)c(C)n1` [US20230293517, Example 6.68], for which the Ki in test [1] is 0.36 nM; in test [2], 217 nM; in test [3] it was 30 nM; in test [4], 0.6 nM.
For `Cc1cc(-c2sc(NC(=O)N3CCC4(CC3)CNC4=O)nc2-c2cccc(C#N)c2)c(F)c(C)n1` [US20230293517, Example 6.69], in that order: 0.94 nM, 156 nM, 124 nM and 1.4 nM.
With `Cc1cc(-c2sc(NC(=O)N3CCC[C@H]3CO)nc2-c2cccc(C#N)c2)cc(C)n1` [US20230293517, Example 6.71], the Ki stood at 3.45 nM in test [1], 62 nM in test [2], 110 nM in test [3] and 4.2 nM in test [4].
For `Cc1cc(-c2sc(NC(=O)N3CC[C@@H]3C)nc2-c2cccc(C#N)c2)cc(C)n1` [US20230293517, Example 6.72], in that order: 1.12 nM, 94 nM, 3 nM and 1.2 nM.
Turning to `Cc1cc(-c2sc(NC(=O)N3CC[C@H]3CO)nc2-c2cccc(C#N)c2)cc(C)n1` [US20230293517, Example 6.73], the Ki in test [1] was 2.51 nM; in test [2] it was 165 nM; in test [3], 92 nM; in test [4] it was 3.7 nM.
As for `Cc1cc(-c2sc(NC(=O)N3CCOC[C@@H]3CO)nc2-c2cccc(C#N)c2)cc(C)n1` [US20230293517, Example 6.76], the inhibitory constant (Ki) in test [1] is 12.9 nM; in test [2], 321 nM; in test [3] it was 39 nM; in test [4], 21.7 nM.
For `Cc1cc(-c2sc(NC(=O)N3CC4(COC4)C3)nc2-c2cccc(C#N)c2C)cc(C)n1` [US20230293517, Example 6.79], in that order: 1.5 nM, 537 nM, 177 nM and 6 nM.
On to `Cc1cc(-c2sc(NC(=O)N3CC[C@@H]3CO)nc2-c2cccc(C#N)c2)cc(C)n1` [US20230293517, Example 6.91], for which the Ki is 1.66 nM in test [1], 162 nM in test [2], 20 nM in test [3] and 5.3 nM in test [4].
